Target: T1, p101/p110γ protein (PI3Kγ) (Homo sapiens, UniProt P48736)
T1 construct: HA; made in house; host or cells: Spodoptera frugiperda (Sf9) cells, baculovirus coinfection
Experiment: PI3Kγ In Vitro Kinase Assay
Format: biochemical
Conditions: purified recombinant p101/p110γ with G protein β1/γ2 subunits; 20 μM ATP, [γ-32P-ATP]; 25 μM PIP2 lipid micelles; 20 minutes at room temperature
Experimental: Spodtera frugiperda cells, grown in ESF921 media, were coinfected with baculovirus expressing a glu-tagged p101 and baculovirus expressing an HA-tagged p110γ, at a 3:1 ratio of p101 baculovirus to p110γ baculovirus. Sf9 cells were grown to 1×10^7 total cells/mL in 10L bioreactors and harvested 48-72 hours post infection. Samples of infected cells were then tested for expression of p101/p110γ PI3 kinase by immunoprecipitation and Western Blot analysis methods (see below). To purify PI3Kγ, 4 volumes of room temperature hypotonic lysis buffer (1 mM MgCl2, 1 mM DTT, 5 mM EGTA, 1 mM Pefabloc, 0.5 μM aprotinin, 5 μM leupeptin, 2 μM pepstatin, 5 μM E64, pH 8) per gram of cell paste, was poured onto frozen cell pellets with stirring, then lysed in a nitrogen “bomb” at 400 psi (599HC […], Parr Instrument Co, Moline, Ill.). NaCl was added to 150 mM, and sodium cholate was added to 1% and mixed for another 45 minutes. The lysates were clarified by centrifugation for 25 minutes at 14,000 rpm. The lysates were then loaded over anti-glu-linked Protein-G Sepaharose beads (Covance Research Products, Richmond, Calif.) using 20 mL resin/50 g cell paste. The column was washed with 15 volumes of wash buffer (1 mM DTT, 0.2 mM EGTA, 1 mM Pefabloc, 0.5 μM aprotinin, 5 μM leupeptin, 2 μM pepstatin, 5 μM E64, 150 mM NaCl, 1% sodium cholate, pH 8). PI3Kγ was eluted with 6 column volumes of wash buffer that contain 100 μg/mL of a peptide that competes for binding of the glu tag. The column fractions with the eluted protein (determined by taking OD280 readings) were collected and dialyzed in 0.2 mM EGTA, 1 mM DTT, 1 mM Pefabloc, 5 μM leupeptin, 0.5% sodium cholate, 150 mM NaCl, and 50% glycerol, pH 8. The fractions were stored at -80° C. until further use. Spodtera frugiperda cells were coinfected with baculovirus expressing a glu-tagged G protein β1 and baculovirus expressing a G protein […], at a 1:1 ratio of glu-tagged G protein β1 baculovirus to G protein β2 baculovirus. Sf9 cells are grown in 10 L bioreactors and harvested 48-72 hours post infection. Samples of infected cells were tested for G protein β1/β2 expression by Western Blot analysis, as described below. Cell lysates were homogenized and loaded onto a column of glu-tagged beads as in Biological Example 1 and competed off the column with a glu peptide and processed as described in Biological Example 1. The inhibitory properties of the compounds in Table 1 were assayed in an in vitro PI3K assay. In a 96-well polypropylene plate, each well was spotted with 2 μL of 50 times the desired final concentration of compound in DMSO. Purified recombinant p101/p110γ protein (0.03 μg; 2.7 nM) and G protein β1/γ2 subunits (0.09 μg; 57.7 nM) for each reaction was combined in the assay buffer (30 mM HEPES, 100 mM NaCl, 1 mM EGTA, and 1 mM DTT). ATP and [γ-^32P-ATP] (0.09 μCi) were added to this mixture so that the final ATP concentration in the reaction was 20 μM. Lipid micelles were formed by sonicating phosphatidylinositol-4,5-diphosphate (PIP2), phosphatidylethanolamine (PE), and Na-cholate in the assay buffer for 10 minutes, adding MgCl2 and incubating on ice for 20 minutes, for final concentrations of 25 μM PIP2, 300 μM PE, 0.02% Na-cholate, and 10 mM MgCl2 in the reaction. The reactions were started by adding equal volumes lipid and enzyme mixture in a total volume of 50 μL, allowed to run for 20 minutes at room temperature, and stopped with 100 μL 75 mM H3PO4. The lipid product was transferred to a glass fiber filter plate and washed with 74 mM H3PO4 several times. The presence of radioactive lipid product (PIP3) was measured by adding Wallac Optiphase mix to each well and counting in a Wallac 1450 Trilux plate reader (PerkinElmer Life Sciences Inc., Boston, Mass. 02118). The IC50 for each compound tested is reported in μM in Table 1: […]

T1 sequence (P48736 whole entry, species assumed): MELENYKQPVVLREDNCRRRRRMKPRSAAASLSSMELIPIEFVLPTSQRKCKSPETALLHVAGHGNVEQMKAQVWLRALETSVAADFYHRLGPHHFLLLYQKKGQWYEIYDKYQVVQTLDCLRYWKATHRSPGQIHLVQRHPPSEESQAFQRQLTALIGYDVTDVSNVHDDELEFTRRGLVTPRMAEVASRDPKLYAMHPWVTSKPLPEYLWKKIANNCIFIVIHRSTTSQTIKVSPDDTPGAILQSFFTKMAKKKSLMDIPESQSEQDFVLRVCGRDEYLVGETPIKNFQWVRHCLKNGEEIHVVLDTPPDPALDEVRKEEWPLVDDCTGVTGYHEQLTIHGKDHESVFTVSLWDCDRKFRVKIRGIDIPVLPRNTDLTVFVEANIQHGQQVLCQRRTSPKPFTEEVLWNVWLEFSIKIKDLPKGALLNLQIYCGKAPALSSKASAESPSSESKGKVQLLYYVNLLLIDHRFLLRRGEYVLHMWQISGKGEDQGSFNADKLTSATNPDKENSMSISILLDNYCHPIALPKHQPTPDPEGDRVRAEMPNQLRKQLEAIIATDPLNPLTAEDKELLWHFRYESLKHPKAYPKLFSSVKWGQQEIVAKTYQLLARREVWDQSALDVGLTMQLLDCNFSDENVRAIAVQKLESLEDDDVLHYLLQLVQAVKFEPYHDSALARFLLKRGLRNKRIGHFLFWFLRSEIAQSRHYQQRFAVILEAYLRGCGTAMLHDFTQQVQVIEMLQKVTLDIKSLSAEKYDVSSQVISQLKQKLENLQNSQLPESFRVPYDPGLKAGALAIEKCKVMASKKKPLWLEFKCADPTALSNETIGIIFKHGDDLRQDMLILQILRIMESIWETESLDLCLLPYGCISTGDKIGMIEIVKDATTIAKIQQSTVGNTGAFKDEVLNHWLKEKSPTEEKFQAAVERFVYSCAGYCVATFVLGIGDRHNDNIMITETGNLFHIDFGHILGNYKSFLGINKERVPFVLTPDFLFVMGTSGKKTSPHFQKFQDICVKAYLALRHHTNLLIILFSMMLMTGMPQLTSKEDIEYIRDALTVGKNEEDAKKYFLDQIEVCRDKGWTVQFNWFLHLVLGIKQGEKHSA
T1 sequence (Q8WYR1 whole entry partner, species assumed): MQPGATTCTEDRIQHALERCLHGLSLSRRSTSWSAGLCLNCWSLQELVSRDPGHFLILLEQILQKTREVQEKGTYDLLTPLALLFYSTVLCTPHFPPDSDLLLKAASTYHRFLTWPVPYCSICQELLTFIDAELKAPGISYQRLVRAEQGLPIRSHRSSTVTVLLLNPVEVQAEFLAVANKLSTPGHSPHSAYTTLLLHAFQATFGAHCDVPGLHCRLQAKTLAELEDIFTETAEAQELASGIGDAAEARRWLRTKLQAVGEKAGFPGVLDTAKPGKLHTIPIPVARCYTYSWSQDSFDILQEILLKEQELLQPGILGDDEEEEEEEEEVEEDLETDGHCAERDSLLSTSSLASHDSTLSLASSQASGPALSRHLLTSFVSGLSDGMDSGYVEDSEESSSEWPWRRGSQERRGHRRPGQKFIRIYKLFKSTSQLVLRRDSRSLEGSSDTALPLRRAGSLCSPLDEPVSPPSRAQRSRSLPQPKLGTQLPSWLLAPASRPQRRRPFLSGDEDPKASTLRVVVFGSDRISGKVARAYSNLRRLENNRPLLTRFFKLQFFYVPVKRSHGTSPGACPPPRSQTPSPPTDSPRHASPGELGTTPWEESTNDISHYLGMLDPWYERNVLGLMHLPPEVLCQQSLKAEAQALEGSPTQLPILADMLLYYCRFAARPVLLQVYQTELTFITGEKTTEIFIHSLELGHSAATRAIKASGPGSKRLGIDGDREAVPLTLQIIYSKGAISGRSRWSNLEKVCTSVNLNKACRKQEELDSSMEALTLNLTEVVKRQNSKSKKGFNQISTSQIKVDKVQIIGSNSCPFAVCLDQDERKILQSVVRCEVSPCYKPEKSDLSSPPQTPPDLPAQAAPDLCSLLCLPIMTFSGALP

Compound | IC50 [nM]
5-Chloro-3(1-methyl-cyclopropoxymethoxy)-benzofuran-2-carboxylic acid (1H-tetrazol-5-yl)-amide [Example 34] | 1460
C=C(C)C1CCC(C)C(Oc2c(C(=O)Nc3nnn[nH]3)oc3ccc(OC)cc23)C1 (stereo not drawn) [Example 7, 3-(5-Isopropenyl-2-methyl-cyclohexyloxy)-5-methoxy-benzofuran-2-carboxylic acid (1H-tetrazol-5-yl)-amide] | 700
O=C(Nc1nnn[nH]1)c1oc2ccc(Cl)cc2c1OCC1CCC1 [Example 35, 5-Chloro-3-cyclobutylmethoxy-benzofuran-2-carboxylic acid (1H-tetrazol-5-yl)-amide] | 3100
O=C(Nc1nnn[nH]1)c1oc2ccc(Cl)cc2c1OC1CCCCCC1 [Example 36, 5-Chloro-3-cycloheptyloxy-benzofuran-2-carboxylic acid (1H-tetrazol-5-yl)-amide] | 950
O=C(Nc1nnn[nH]1)c1oc2ccc(Cl)cc2c1OC1CCC1 [Example 37, 5-Chloro-3-cyclobutoxy-benzofuran-2-carboxylic acid (1H-tetrazol-5-yl)-amide] | 2020
O=C(Nc1nnn[nH]1)c1oc2ccc(Cl)cc2c1OCC1CCCC1 [Example 38, 5-Chloro-3cyclopentylmethoxy-benzofuran-2-carboxylic acid (1H-tetrazol-5-yl)-amide] | 1040
CC(Oc1c(C(=O)Nc2nnn[nH]2)oc2ccc(Cl)cc12)C1CCCC1 (stereo not drawn) [Example 39, 5-Chloro-3-(1-cyclopentyl-ethoxy)-benzofuran-2-carboxylic acid (1H-tetrazol-5-yl)-amide] | 2700
CC1CCC(Oc2c(C(=O)Nc3nnn[nH]3)oc3ccc(Cl)cc23)CC1C (stereo not drawn) [Example 40, 5-Chloro-3-(3,4-dimethyl-cyclohexyloxy)-benzofuran-2-carboxylic acid (1H-tetrazol-5-yl)-amide] | 1100
O=C(Nc1nnn[nH]1)c1oc2ccc(Cl)cc2c1OCC1CC1 [Example 44, 5-Chloro-3-cyclopropylmethoxy-benzofuran-2-carboxylic acid (1H-tetrazol-5-yl)-amide] | 9420

Now those with a lower IC50, led by results:

IC50 [nM] | Compound
645 | O=C(Nc1nnn[nH]1)c1oc2ccc(Cl)cc2c1OC1CCCCC1 [Example 42, 5-Chloro-3-cyclohexyloxy-benzofuran-2-carboxylic acid (1H-tetrazol-5-yl)-amide]
480 | CC1CC(C)CC(Oc2c(C(=O)Nc3nnn[nH]3)oc3ccc(Cl)cc23)C1 (stereo not drawn) [Example 41, 5-Chloro-3-(3,5-dimethyl-cyclohexyloxy)-benzofuran-2-carboxylic acid (1H-tetrazol-5-yl)-amide]
305 | COc1ccc2oc(C(=O)Nc3nnn[nH]3)c(OC3CCCC3C)c2c1 (stereo not drawn) [Example 8, 5-Methoxy-3-(2-methyl-cyclopentyloxy)-benzofuran-2-carboxylic acid (1H-tetrazol-5-yl)-amide]
220 | 5-Methoxy-3-(1-methyl-cyclomethoxy)-benzofuran-2-carboxylic acid (1H-tetrazol-5-yl)-amide [Example 24]
185 | 5-Methoxy-3-(6-methyl-cyclohex-3-enylmethoxy)-benzofuran-2-carboxylic acid (1H-tetrazol-5-yl)-amide [Example 16]
180 | COc1ccc2oc(C(=O)Nc3nnn[nH]3)c(OC3CCCCC3C)c2c1 (stereo not drawn) [Example 5, 5-Methoxy-3-(2-methyl-cyclohexyloxy)-benzofuran-2-carboxylic acid (1H-tetrazol-5-yl)-amide]
130 | COc1ccc2oc(C(=O)Nc3nnn[nH]3)c(OC3CCCCC3C)c2c1 (stereo not drawn) [Example 18, 5-Methoxy-3-(2-methyl-cyclohexyloxy)-benzofuran-2-carboxylic acid (1H-tetrazol-5-yl)-amide]
108 | 3-Cycloheptylmethoxy-5-methoxy-benzofuran-2-carboxylic acid (1H-tetrazol-5-yl)-amide [Example 29]
100 | COc1ccc2oc(C(=O)Nc3nnn[nH]3)c(OC3CC(C)CC(C)C3)c2c1 (stereo not drawn) [Example 17, 3-(3,5-Dimethyl-cyclohexyloxy)-5-methoxy-benzofuran-2-carboxylic acid (1H-tetrazol-5-yl)-amide]
97 | 3-Cycloheptyloxy-5-methoxy-benzofuran-2-carboxylic acid (1H-tetrazol-5-yl)-amide [Example 26]
67 | COc1ccc2oc(C(=O)Nc3nnn[nH]3)c(OC3CCCC(C)C3)c2c1 (stereo not drawn) [Example 14, 5-Methoxy-3-(3-methyl-cyclohexyloxy)-benzofuran-2-carboxylic acid (1H-tetrazol-5-yl)-amide]

Test system: not given
Experiment: not given
Conditions: not given

melting point [°C] | Compound
243 to 244 | O=C(Nc1nnn[nH]1)c1oc2ccc(Cl)cc2c1OCC1CC1 [Example 44, 5-Chloro-3-cyclopropylmethoxy-benzofuran-2-carboxylic acid (1H-tetrazol-5-yl)-amide]

— patent US20050020631A1, “3-Substituted benzofurans as therapeutic agents” (priority 2003, published 2005)
